# According to patent US8686150B2 (Sanofi, priority 2011, dated 2014):
# Biological target: T1, human full-length recombinant PKC βII (Homo sapiens, UniProt P05771)
# T1 construct: Active human full-length recombinant PKC βII; purchased Invitrogen GmbH, Darmstadt, Germany
# Assay: Determination of PKC βII inhibition (Caliper mobility-shift kinase assay, Fluorescein-RFARKGSLRQKNV peptide substrate)
# Format: biochemical
# Settings: example compounds at a final concentration of 1.14 μM (±0.15 μM)
# Summary of the method: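 Compounds were tested at 1.14 μM final. Enzyme was activated by PS, DAG and CaCl2 in Hepes pH 7.4 with MgCl2, with substrate 3 μM and ATP 120 μM as pre-mix concentrations. After 60 min at 32 °C and an EDTA stop, Caliper separation gave fractional turnover, which was normalised to no-compound and no-enzyme controls.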
# T1 sequence (P05771 1-673 isoform P05771-2): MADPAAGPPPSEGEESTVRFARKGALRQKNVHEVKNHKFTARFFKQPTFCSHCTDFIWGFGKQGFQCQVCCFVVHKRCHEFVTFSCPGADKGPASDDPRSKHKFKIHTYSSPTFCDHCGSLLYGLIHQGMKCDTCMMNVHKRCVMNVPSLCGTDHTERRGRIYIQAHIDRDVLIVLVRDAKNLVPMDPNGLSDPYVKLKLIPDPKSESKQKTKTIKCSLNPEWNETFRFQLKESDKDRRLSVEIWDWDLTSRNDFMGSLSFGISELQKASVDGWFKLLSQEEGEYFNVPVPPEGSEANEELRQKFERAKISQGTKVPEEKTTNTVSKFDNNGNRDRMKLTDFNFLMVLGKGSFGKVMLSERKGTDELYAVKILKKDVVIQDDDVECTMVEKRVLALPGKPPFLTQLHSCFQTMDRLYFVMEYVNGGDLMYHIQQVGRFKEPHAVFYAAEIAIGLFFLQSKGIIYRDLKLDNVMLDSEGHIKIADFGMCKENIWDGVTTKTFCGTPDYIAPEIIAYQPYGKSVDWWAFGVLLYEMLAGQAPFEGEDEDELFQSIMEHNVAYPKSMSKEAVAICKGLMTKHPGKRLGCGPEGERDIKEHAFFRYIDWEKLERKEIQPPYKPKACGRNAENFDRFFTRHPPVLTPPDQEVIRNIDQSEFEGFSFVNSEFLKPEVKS
row,Structure (SMILES),inhibition at 1.14 µM [%]
1,"Cc1n[nH]c2nc(-c3ccc(O)cc3)cc(C(=O)N3CCNCC3c3cccc(F)c3F)c12 (centres unmarked) [Example 85, [2-(2,3-Difluoro-phenyl)-piperazin-1-yl]-[6-(4-hydroxy-phenyl)-3-methyl-1H-pyrazolo[3,4-b]pyridin-4-yl]-methanone]",98
2,"Cc1n[nH]c2nc(-c3ccc(O)cc3)cc(C(=O)N3CCNC(C4CC4)C3)c12 (centres unmarked) [Example 86, (3-Cyclopropyl-piperazin-1-yl)-[6-(4-hydroxy-phenyl)-3-methyl-1H-pyrazolo[3,4-b]pyridin-4-yl]-methanone]",96
3,"Cc1n[nH]c2nc(-c3ccc(O)cc3)cc(C(=O)N3CCNCC3c3cc(F)cc(F)c3)c12 (centres unmarked) [Example 87, [2-(3,5-Difluoro-phenyl)-piperazin-1-yl]-[6-(4-hydroxy-phenyl)-3-methyl-1H-pyrazolo[3,4-b]pyridin-4-yl]-methanone]",93
4,"Cc1n[nH]c2nc(-c3ccc(O)cc3)cc(C(=O)N3C[C@H](C)NC[C@@H]3C)c12 [Example 88, ((2S,5S)-2,5-Dimethyl-piperazin-1-yl)-[6-(4-hydroxy-phenyl)-3-methyl-1H-pyrazolo[3,4-b]pyridin-4-yl]-methanone]",101
5,"Cc1n[nH]c2nc(-c3ccc(O)cc3)cc(C(=O)N3CCNCC3c3ccc(Br)cc3)c12 (centres unmarked) [Example 89, [2-(4-Bromo-phenyl)-piperazin-1-yl]-[6-(4-hydroxy-phenyl)-3-methyl-1H-pyrazolo[3,4-b]pyridin-4-yl]-methanone]",92
6,"Cc1n[nH]c2nc(-c3ccc(O)cc3)cc(C(=O)N3CC(CN)C3)c12 [Example 90, (3-Aminomethyl-azetidin-1-yl)-[6-(4-hydroxy-phenyl)-3-methyl-1H-pyrazolo[3,4-b]pyridin-4-yl]-methanone]",96
7,"Cc1n[nH]c2nc(-c3ccc(O)cc3)cc(C(=O)N3CCNCC3c3cccc(F)c3)c12 (centres unmarked) [Example 91, [2-(3-Fluoro-phenyl)-piperazin-1-yl]-[6-(4-hydroxy-phenyl)-3-methyl-1H-pyrazolo[3,4-b]pyridin-4-yl]-methanone]",93
8,"Cc1n[nH]c2nc(-c3ccc(O)cc3)cc(C(=O)N3CCNCC3c3ccc(F)c(F)c3)c12 (centres unmarked) [Example 92, [2-(3,4-Difluoro-phenyl)-piperazin-1-yl]-[6-(4-hydroxy-phenyl)-3-methyl-1H-pyrazolo[3,4-b]pyridin-4-yl]-methanone]",95
9,"Cc1n[nH]c2nc(-c3ccc(O)cc3)cc(C(=O)N3CCNCC3c3ccccc3C(F)(F)F)c12 (centres unmarked) [Example 93, [6-(4-Hydroxy-phenyl)-3-methyl-1H-pyrazolo[3,4-b]pyridin-4-yl]-[2-(2-trifluoromethyl-phenyl)-piperazin-1-yl]-methanone]",79
10,"Cc1n[nH]c2nc(-c3ccc(O)cc3)cc(C(=O)N3CCNCC3c3ccc(C(C)C)cc3)c12 (centres unmarked) [Example 94, [6-(4-Hydroxy-phenyl)-3-methyl-1H-pyrazolo[3,4-b]pyridin-4-yl]-[2-(4-isopropyl-phenyl)-piperazin-1-yl]-methanone]",90
11,"Cc1n[nH]c2nc(-c3ccc(O)cc3)cc(C(=O)N3CCNCC3c3ccccc3F)c12 (centres unmarked) [Example 95, [2-(2-Fluoro-phenyl)-piperazin-1-yl]-[6-(4-hydroxy-phenyl)-3-methyl-1H-pyrazolo[3,4-b]pyridin-4-yl]-methanone]",99
12,"Cc1n[nH]c2nc(-c3ccc(O)cc3)cc(C(=O)N3CCNCC3c3ccc(F)cc3F)c12 (centres unmarked) [Example 96, [2-(2,4-Difluoro-phenyl)-piperazin-1-yl]-[6-(4-hydroxy-phenyl)-3-methyl-1H-pyrazolo[3,4-b]pyridin-4-yl]-methanone]",98
13,"Cc1n[nH]c2nc(-c3ccc(O)cc3)cc(C(=O)N3CCNCC3c3ccc(C(F)(F)F)cc3)c12 (centres unmarked) [Example 97, [6-(4-Hydroxy-phenyl)-3-methyl-1H-pyrazolo[3,4-b]pyridin-4-yl]-[2-(4-trifluoromethyl-phenyl)-piperazin-1-yl]-methanone]",96
14,"Cc1n[nH]c2nc(-c3ccc(O)cc3)cc(C(=O)NCC3CNC3)c12 [Example 98, 6-(4-Hydroxy-phenyl)-3-methyl-1H-pyrazolo[3,4-b]pyridine-4-carboxylic acid (azetidin-3-ylmethyl)-amide]",89
15,"Cc1n[nH]c2nc(-c3ccc(O)cc3)cc(C(=O)N3CCNCC3c3cccc(C(F)(F)F)c3)c12 (centres unmarked) [Example 99, [6-(4-Hydroxy-phenyl)-3-methyl-1H-pyrazolo[3,4-b]pyridin-4-yl]-[2-(3-trifluoromethyl-phenyl)-piperazin-1-yl]-methanone]",97
16,"Cc1n[nH]c2nc(-c3ccc(O)cc3)cc(C(=O)N3CCNCC3c3c(F)cccc3F)c12 (centres unmarked) [Example 100, [2-(2,6-Difluoro-phenyl)-piperazin-1-yl]-[6-(4-hydroxy-phenyl)-3-methyl-1H-pyrazolo[3,4-b]pyridin-4-yl]-methanone]",96
17,"Cc1n[nH]c2nc(-c3ccc(O)cc3)cc(C(=O)N3CCNCC3c3cccc(Br)c3)c12 (centres unmarked) [Example 101, [2-(3-Bromo-phenyl)-piperazin-1-yl]-[6-(4-hydroxy-phenyl)-3-methyl-1H-pyrazolo[3,4-b]pyridin-4-yl]-methanone]",99
18,"Cc1n[nH]c2nc(-c3ccc(O)cc3)cc(C(=O)N3CCNCC3c3ccccc3Cl)c12 (centres unmarked) [Example 102, [2-(2-Chloro-phenyl)-piperazin-1-yl]-[6-(4-hydroxy-phenyl)-3-methyl-1H-pyrazolo[3,4-b]pyridin-4-yl]-methanone]",93
19,"Cc1n[nH]c2nc(-c3ccc(O)cc3)cc(C(=O)N3CC4CCC(C3)N4)c12 [Example 111, 3,8-Diaza-bicyclo[3.2.1]oct-3-yl-[6-(4-hydroxy-phenyl)-3-methyl-1H-pyrazolo[3,4-b]pyridin-4-yl]-methanone]",97

# Now from value to compound:
row,inhibition at 1.14 µM [%],Structure (SMILES)
1,72,"Cc1n[nH]c2nc(-c3ccc(O)cc3)cc(C(=O)N[C@H]3CC[C@@H](N)CC3)c12 [Example 103, 6-(4-Hydroxy-phenyl)-3-methyl-1H-pyrazolo[3,4-b]pyridine-4-carboxylic acid (cis-4-amino-cyclohexyl)-amide]"
2,94,"Cc1n[nH]c2nc(-c3ccc(O)cc3)cc(C(=O)NC(CN)c3ccccc3)c12 (centres unmarked) [Example 104, 6-(4-Hydroxy-phenyl)-3-methyl-1H-pyrazolo[3,4-b]pyridine-4-carboxylic acid (2-amino-1-phenyl-ethyl)-amide]"
3,53,"Cc1n[nH]c2nc(-c3ccc(O)cc3)cc(C(=O)NC[C@H]3CC[C@@H](N)CC3)c12 [Example 105, 6-(4-Hydroxy-phenyl)-3-methyl-1H-pyrazolo[3,4-b]pyridine-4-carboxylic acid (cis-4-amino-cyclohexylmethyl)-amide]"
4,77,"Cc1n[nH]c2nc(-c3ccc(O)cc3)cc(C(=O)NC3CCNC3)c12 (centres unmarked) [Example 106, 6-(4-Hydroxy-phenyl)-3-methyl-1H-pyrazolo[3,4-b]pyridine-4-carboxylic acid pyrrolidin-3-ylamide]"
5,83,"Cc1n[nH]c2nc(-c3ccc(O)cc3)cc(C(=O)NC(CN)c3ccc(F)cc3)c12 (centres unmarked) [Example 107, 6-(4-Hydroxy-phenyl)-3-methyl-1H-pyrazolo[3,4-b]pyridine-4-carboxylic acid [2-amino-1-(4-fluoro-phenyl)-ethyl]-amide]"
6,96,"Cc1n[nH]c2nc(-c3ccc(O)cc3)cc(C(=O)N3CCNCC34CCCC4)c12 [Example 108, (6,9-Diaza-spiro[4.5]dec-6-yl)-[6-(4-hydroxy-phenyl)-3-methyl-1H-pyrazolo[3,4-b]pyridin-4-yl]-methanone]"
7,88,"CNC1CCN(C(=O)c2cc(-c3ccc(O)cc3)nc3[nH]nc(C)c23)CC1 [Example 109, [6-(4-Hydroxy-phenyl)-3-methyl-1H-pyrazolo[3,4-b]pyridin-4-yl]-(4-methylamino-piperidin-1-yl)-methanone]"
8,65,"Cc1n[nH]c2nc(-c3ccc(O)cc3)cc(C(=O)N3CCC[C@@H](CN)C3)c12 [Example 110, ((S)-3-Aminomethyl-piperidin-1-yl)-[6-(4-hydroxy-phenyl)-3-methyl-1H-pyrazolo[3,4-b]pyridin-4-yl]-methanone]"
9,92,"Cc1n[nH]c2nc(-c3ccc(O)cc3)cc(C(=O)N3C[C@@H](C)NC[C@@H]3C)c12 [Example 112, ((2S,5R)-2,5-Dimethyl-piperazin-1-yl)-[6-(4-hydroxy-phenyl)-3-methyl-1H-pyrazolo[3,4-b]pyridin-4-yl]-methanone]"
10,93,"Cc1n[nH]c2nc(-c3ccc(O)cc3)cc(C(=O)N3CC(C)(C)NCC3C)c12 (centres unmarked) [Example 113, [6-(4-Hydroxy-phenyl)-3-methyl-1H-pyrazolo[3,4-b]pyridin-4-yl]-(2,5,5-trimethyl-piperazin-1-yl)-methanone]"
11,87,"Cc1n[nH]c2nc(-c3ccc(O)cc3)cc(C(=O)N3CCNCC3C(F)(F)F)c12 (centres unmarked) [Example 114, [6-(4-Hydroxy-phenyl)-3-methyl-1H-pyrazolo[3,4-b]pyridin-4-yl]-(2-trifluoromethyl-piperazin-1-yl)-methanone]"
12,83,"CCC1(NC(=O)c2cc(-c3ccc(O)cc3)nc3[nH]nc(C)c23)CCCNC1 (centres unmarked) [Example 115, 6-(4-Hydroxy-phenyl)-3-methyl-1H-pyrazolo[3,4-b]pyridine-4-carboxylic acid (3-ethyl-piperidin-3-yl)-amide]"
13,76,"Cc1n[nH]c2nc(-c3ccc(O)cc3)cc(C(=O)NCC3(N)CCCCCC3)c12 [Example 116, 6-(4-Hydroxy-phenyl)-3-methyl-1H-pyrazolo[3,4-b]pyridine-4-carboxylic acid (1-amino-cycloheptylmethyl)-amide]"
